Source: patent US8324390B2, “Tetrazole-substituted anthranilamides as pesticides” (Bayer CropScience AG, priority 2008, dated 2012)
Like-named read-outs stand apart in the source and are kept apart here.

Key:
[1] = log P determination by HPLC (EEC Directive 79/831 Annex V.A8); assay type: physicochemical
Method: The measurements were carried out using an Agilent 1100 LC system with a 50*4.6 Zorbax Eclipse C18 1.8 μm column (oven temperature 55° C., flow rate 2.0 ml/min).
The following mobile phases were used:
Mobile phase A: acetonitrile+1000 μl of formic acid/l
Mobile phase B: Millipore water+900 μl of formic acid/l

[2] = system: caterpillars of the armyworm (Spodoptera frugiperda); experiment: Spodoptera frugiperda test (SPODFR spray treatment); assay type: in vivo; conditions: Spodoptera frugiperda, foliar, read-out: effect in % (caterpillars killed)
Text: Solvent: 78.0 parts by weight of acetone

[3] = system: larvae of the mustard beetle (Phaedon cochleariae); experiment: Phaedon test (PHAECO spray treatment); conditions: Phaedon cochleariae, in Brassica rapa, foliar, read-out: effect in % (beetle larvae killed)
[4] = reversed-phase HPLC, Zorbax Eclipse C18 column, by HPLC according to EEC Directive 79/831 Annex V.A8, read-out: log P
[5] = application rate 100 g/ha, maize leaf discs
[6] = reversed-phase HPLC, Zorbax Eclipse C18 column, determined by HPLC according to EEC Directive 79/831 Annex V.A8, read-out: log P

| SMILES | chromatographic logP ([1]; log P) | pest or weed control at 100 g/ha ([2]; in Zea mays) [%] | pest or weed control at 100 g/ha [3] [%] | chromatographic logP [1, 4] | pest or weed control at 100 g/ha [2, 5] [%] | chromatographic logP [1, 6] | chromatographic logP ([1]; HPLC, acetonitrile/water with formic acid, read-out: log P) | chromatographic logP ([1]; by HPLC according to EEC Directive 79/831 Annex V.A8, read-out: log P) |
| --- | --- | --- | --- | --- | --- | --- | --- | --- |
| Cc1cc(Cl)cc(C(=O)NC2CC2)c1NC(=O)c1cc(Cn2nnc(C(F)F)n2)nn1-c1ncccc1Cl [Example 230] | 2.72 | ≥ 80 | ≥ 80 |  |  |  |  |  |
| CC(C)(C)NC(=O)c1cc(Cl)cc(Cl)c1NC(=O)c1cc(Cn2nnnc2C(F)(F)C(F)(F)F)nn1-c1ncccc1Cl [Example 206] | 3.88 | ≥ 80 | ≥ 80 |  |  |  |  |  |
| Cc1cc(Cl)cc(C(=O)NC(C)C)c1NC(=O)c1cc(Cn2nnc(C(F)(F)F)n2)nn1-c1ncccc1C(F)(F)F [Example 227] |  |  | ≥ 80 | 3.64 | ≥ 80 |  |  |  |
| Cc1cc(I)cc(C(=O)NC2CC2)c1NC(=O)c1cc(Cn2nnnc2C(F)(F)F)nn1-c1ncccc1C(F)(F)F [Example 456] |  |  | ≥ 80 |  | ≥ 80 | 3.31 |  |  |
| O=C(NC1CCC1)c1cc(Cl)cc(Cl)c1NC(=O)c1cc(Cn2nnc(C(F)(F)F)n2)nn1-c1ncccc1Cl [Example 62] | 3.51 | ≥ 80 | ≥ 80 |  |  |  |  |  |
| CCNC(=O)c1cc(Cl)cc(C)c1NC(=O)c1cc(Cn2nnc(C(F)(F)C(F)(F)F)n2)nn1-c1ncccc1Cl [Example 128] | 3.65 | ≥ 80 | ≥ 80 |  |  |  |  |  |
| Cc1cc(C#N)cc(C(=O)NC(C)(C)C)c1NC(=O)c1cc(Cn2nnc(C(F)(C(F)(F)F)C(F)(F)F)n2)nn1-c1ncccc1Cl [Example 371] |  |  | ≥ 80 | 4.1 | ≥ 80 |  |  |  |
| Cc1cc(I)cc(C(=O)NC(C)C2CC2)c1NC(=O)c1cc(Cn2nnc(C(F)(F)C(F)(F)F)n2)nn1-c1ncccc1Cl (stereo not drawn) [Example 141] | 4.42 | ≥ 80 | ≥ 80 |  |  |  |  |  |
| Cc1cc(Cl)cc(C(=O)NC(C)(C)C)c1NC(=O)c1cc(Cn2nnnc2C(F)(F)C(F)(F)F)nn1-c1ncccc1Br [Example 514] |  |  | ≥ 80 |  | ≥ 80 | 3.91 |  |  |
| Cc1cc(C#N)cc(C(=O)NC2CCCC2)c1NC(=O)c1cc(Cn2nnc(C(F)(F)F)n2)nn1-c1ncccc1Cl [Example 399] | 3.37 | ≥ 80 | ≥ 80 |  |  |  |  |  |
| Cc1cc(C#N)cc(C(=O)NC(C)(C)C)c1NC(=O)c1cc(Cn2nnc(C(F)(F)F)n2)nn1-c1ncccc1C(F)(F)F [Example 232] |  |  | ≥ 80 | 3.59 | ≥ 80 |  |  |  |
| Cc1cc(Cl)cc(C(=O)NC(C)C)c1NC(=O)c1cc(Cn2nnc(C(F)(F)C(F)(F)C(F)(F)F)n2)nn1-c1ncccc1Cl [Example 1, 2-(3-chloropyridin-2-yl)-5-(5-heptafluoropropyltetrazol-2-ylmethyl)-2H-pyrazole-3-carboxylic acid (4-chloro-2-isopropylcarbamoyl-6-methylphenyl)amide] |  | ≥ 80 | ≥ 80 |  |  |  | 4.23 |  |
| Cc1cc(Cl)cc(C(=O)NCC2CC2)c1NC(=O)c1cc(Cn2nnc(C(F)(F)C(F)(F)F)n2)nn1-c1ncccc1Cl [Example 131] | 3.93 | ≥ 80 | ≥ 80 |  |  |  |  |  |
| Cc1cc(Cl)cc(C(=O)NC(C)(C)C)c1NC(=O)c1cc(Cn2nnc(C(F)(F)C(F)(F)C(F)(F)F)n2)nn1-c1ncccc1Cl [Example 107] |  | ≥ 80 | ≥ 80 |  |  |  |  | 4.6 |
| CSC[C@H](C)NC(=O)c1cc(C#N)cc(C)c1NC(=O)c1cc(Cn2nnc(C(F)(F)C(F)(F)F)n2)nn1-c1ncccc1Cl [Example 216] | 3.68 | ≥ 80 | ≥ 80 |  |  |  |  |  |
| Cc1cc(Cl)cc(C(=O)NC(C)C2CC2)c1NC(=O)c1cc(Cn2nnc(C(F)(F)C(F)(F)F)n2)nn1-c1ncccc1Cl (stereo not drawn) [Example 126] | 4.25 | ≥ 80 | ≥ 80 |  |  |  |  |  |
| Cc1cc(C#N)cc(C(=O)NC(C)(C)C)c1NC(=O)c1cc(Cn2nnc(C(F)(F)F)n2)nn1-c1ccccc1Br [Example 347] |  |  | ≥ 80 | 3.95 | ≥ 80 |  |  |  |
| Cc1cc(C#N)cc(C(=O)NC(C)C2CC2)c1NC(=O)c1cc(Cn2nnnc2C(F)(F)F)nn1-c1ncccc1Cl (stereo not drawn) [Example 185] | 3 | ≥ 80 | ≥ 80 |  |  |  |  |  |
| Cc1cc(C)c(NC(=O)c2cc(Cn3nnc(C(F)(F)F)n3)nn2-c2ncccc2Cl)c(C(=O)NC2CCC2)c1 [Example 84] | 3.42 | ≥ 80 | ≥ 80 |  |  |  |  |  |
| Cc1cc(I)cc(C(=O)NCC2CC2)c1NC(=O)c1cc(Cn2nnc(C(F)(F)F)n2)nn1-c1ncccc1Cl [Example 73] | 3.78 | ≥ 80 | ≥ 80 |  |  |  |  |  |
| CCNC(=O)c1cc(Cl)cc(C)c1NC(=O)c1cc(Cn2nnc(C(F)(C(F)(F)F)C(F)(F)F)n2)nn1-c1ncccc1Cl [Example 364] | 3.96 | ≥ 80 | ≥ 80 |  |  |  |  |  |
| CSC[C@H](C)NC(=O)c1cc(Cl)cc(C)c1NC(=O)c1cc(Cn2nnc(C(F)F)n2)nn1-c1ncccc1Cl [Example 302] | 3.18 | ≥ 80 | ≥ 80 |  |  |  |  |  |
| Cc1cc(C#N)cc(C(=O)NC(C)C2CC2)c1NC(=O)c1cc(Cn2nnc(C(F)(C(F)(F)F)C(F)(F)F)n2)nn1-c1ncccc1Cl (stereo not drawn) [Example 368] |  |  | ≥ 80 | 4.07 | ≥ 80 |  |  |  |
| Cc1cc(I)cc(C(=O)NC(C)C)c1NC(=O)c1cc(Cn2nnc(C(F)(F)C(F)(F)F)n2)nn1-c1ncccc1Cl [Example 142] | 4.19 | ≥ 80 | ≥ 80 |  |  |  |  |  |
| CCNC(=O)c1cc(Cl)cc(Cl)c1NC(=O)c1cc(Cn2nnc(C(F)(C(F)(F)F)C(F)(F)F)n2)nn1-c1ncccc1Cl [Example 388] | 3.89 | ≥ 80 | ≥ 80 |  |  |  |  |  |
| O=C(NC1CC1)c1cc(Cl)cc(Cl)c1NC(=O)c1cc(Cn2nnnc2C(F)F)nn1-c1ncccc1Cl [Example 469] | 2.44 | ≥ 80 | ≥ 80 |  |  |  |  |  |
| CCNC(=O)c1cc(Cl)cc(C)c1NC(=O)c1cc(Cn2nnc(C(F)(F)F)n2)nn1-c1ncccc1Cl [Example 33] | 3.23 | ≥ 80 | ≥ 80 |  |  |  |  |  |
| CC(C)NC(=O)c1cc(Cl)cc(Cl)c1NC(=O)c1cc(Cn2nnc(C(F)(C(F)(F)F)C(F)(F)F)n2)nn1-c1ncccc1Cl [Example 389] | 4.12 | ≥ 80 | ≥ 80 |  |  |  |  |  |
| CC(C)NC(=O)c1cc(Cl)cc(Cl)c1NC(=O)c1cc(Cn2nnc(C(F)(F)F)n2)nn1-c1ncccc1Cl [Example 61] | 3.41 | ≥ 80 | ≥ 80 |  |  |  |  |  |
